# Source: PubChem BioAssay AID2060510 (Molecular Pharmacology Branch, DTP, NCI, 2025)
# System: 439559-082-T-J2-PDC spheroids viability
# Test: Anticancer human tumor 439559-082-T-J2-PDC patient-derived colon adenocarcinoma cell line growth inhibition [GQUAD]
# Conditions: for IC50: curve of first compound; for viability, T/C: stronger effect = lower value
# In short: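 Multi-cell-type spheroids of tumor cells with HUVEC and mesenchymal stem cells, treated with drug combinations. Concentrations descend in half-log steps from near clinical Cmax, or from 10 microM where Cmax is unknown; viability read-out.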
# [1] = second compound 0.0316 µM, first compound 0.0316 µM
# [2] = second compound 0.0316 µM, first compound 0.1 µM
# [3] = second compound 0.0316 µM, first compound 0.316 µM
# [4] = second compound 0.0316 µM, first compound 1 µM
# [5] = second compound 0.0316 µM, first compound 3.16 µM
# [6] = second compound 0.0316 µM, first compound 10 µM
# [7] = second compound 0.1 µM, first compound 0.0316 µM
# [8] = second compound 0.1 µM, first compound 0.1 µM
# [9] = second compound 0.1 µM, first compound 0.316 µM
# [10] = second compound 0.1 µM, first compound 1 µM
# [11] = second compound 0.1 µM, first compound 3.16 µM
# [12] = second compound 0.1 µM, first compound 10 µM
# [13] = second compound 0.316 µM, first compound 0.0316 µM
# [14] = second compound 0.316 µM, first compound 0.1 µM
# [15] = second compound 0.316 µM, first compound 0.316 µM
# [16] = second compound 0.316 µM, first compound 1 µM
# [17] = second compound 0.316 µM, first compound 3.16 µM
# [18] = second compound 0.316 µM, first compound 10 µM
# [19] = second compound 1 µM, first compound 0.0316 µM
# [20] = second compound 1 µM, first compound 0.1 µM
# [21] = second compound 1 µM, first compound 0.316 µM
# [22] = second compound 1 µM, first compound 1 µM
# [23] = second compound 1 µM, first compound 3.16 µM
# [24] = second compound 1 µM, first compound 10 µM
# [25] = second compound 3.16 µM, first compound 0.0316 µM
# [26] = second compound 3.16 µM, first compound 0.1 µM
# [27] = second compound 3.16 µM, first compound 0.316 µM
# [28] = second compound 3.16 µM, first compound 1 µM
# [29] = second compound 3.16 µM, first compound 3.16 µM
# [30] = second compound 3.16 µM, first compound 10 µM
# [31] = second compound 10 µM, first compound 0.0316 µM
# [32] = second compound 10 µM, first compound 0.1 µM
# [33] = second compound 10 µM, first compound 0.316 µM
# [34] = second compound 10 µM, first compound 1 µM
# [35] = second compound 10 µM, first compound 3.16 µM
# [36] = second compound 10 µM, first compound 10 µM
# 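Also: spheroids exposed to the agents for 7 days before readout.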
# 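For viability, T/C in this document: percent of luminescence signal in DMSO vehicle wells taken as 100% viability.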
smiles,measurement,setting,value
C=CCn1c(=O)c2cnc(Nc3ccc(N4CCN(C)CC4)cc3)nc2n1-c1cccc(C(C)(C)O)n1 + Cc1[nH]c2ccc(F)cc2c1-c1nc2c3cccnc3c3ncccc3c2[nH]1,IC50,second compound 0.0316 µM,7.9 µM
same,IC50,second compound 0.1 µM,> 10 µM
same,IC50,second compound 0.316 µM,8.08 µM
same,IC50,second compound 1 µM,8.33 µM
same,IC50,second compound 3.16 µM,5.74 µM
same,IC50,second compound 10 µM,5.56 µM
same,"viability, T/C",[1],94.2%
same,"viability, T/C",[2],92.7%
same,"viability, T/C",[3],97.6%
same,"viability, T/C",[4],101%
same,"viability, T/C",[5],115%
same,"viability, T/C",[6],37%
same,"viability, T/C",[7],96.6%
same,"viability, T/C",[8],88.4%
same,"viability, T/C",[9],103%
same,"viability, T/C",[10],92.9%
same,"viability, T/C",[11],98.5%
same,"viability, T/C",[12],57.4%
same,"viability, T/C",[13],97.7%
same,"viability, T/C",[14],102%
same,"viability, T/C",[15],89%
same,"viability, T/C",[16],104%
same,"viability, T/C",[17],106%
same,"viability, T/C",[18],38.6%
same,"viability, T/C",[19],107%
same,"viability, T/C",[20],99%
same,"viability, T/C",[21],100%
same,"viability, T/C",[22],95.7%
same,"viability, T/C",[23],96.9%
same,"viability, T/C",[24],41.2%
same,"viability, T/C",[25],80.5%
same,"viability, T/C",[26],80.2%
same,"viability, T/C",[27],78.7%
same,"viability, T/C",[28],75.5%
same,"viability, T/C",[29],76.1%
same,"viability, T/C",[30],25.9%
same,"viability, T/C",[31],97.4%
same,"viability, T/C",[32],71.8%
same,"viability, T/C",[33],72.6%
same,"viability, T/C",[34],71.3%
same,"viability, T/C",[35],80.4%
same,"viability, T/C",[36],20.3%
COc1ncnc(C2CC2)c1-c1ncc2cnn(Cc3ccc(-c4nc(C(F)(F)F)cn4C(C)C)cc3)c2n1 + Cc1[nH]c2ccc(F)cc2c1-c1nc2c3cccnc3c3ncccc3c2[nH]1,IC50,second compound 0.0316 µM,> 10 µM
same,IC50,second compound 0.1 µM,> 10 µM
same,IC50,second compound 0.316 µM,> 10 µM
same,IC50,second compound 1 µM,> 10 µM
same,IC50,second compound 3.16 µM,> 10 µM
same,IC50,second compound 10 µM,> 10 µM
same,"viability, T/C",[1],102%
same,"viability, T/C",[2],86.8%
same,"viability, T/C",[3],97.2%
same,"viability, T/C",[4],90.3%
same,"viability, T/C",[5],81.5%
same,"viability, T/C",[6],58%
same,"viability, T/C",[7],112%
same,"viability, T/C",[8],94.8%
same,"viability, T/C",[9],97.6%
same,"viability, T/C",[10],93.8%
same,"viability, T/C",[11],84.6%
same,"viability, T/C",[12],63.6%
same,"viability, T/C",[13],103%
same,"viability, T/C",[14],104%
same,"viability, T/C",[15],103%
same,"viability, T/C",[16],90.6%
same,"viability, T/C",[17],83.7%
same,"viability, T/C",[18],72.5%
same,"viability, T/C",[19],99.8%
same,"viability, T/C",[20],92%
same,"viability, T/C",[21],91.9%
same,"viability, T/C",[22],92.5%
same,"viability, T/C",[23],77.8%
same,"viability, T/C",[24],60.4%
same,"viability, T/C",[25],97.3%
same,"viability, T/C",[26],95.3%
same,"viability, T/C",[27],93.2%
same,"viability, T/C",[28],78.2%
same,"viability, T/C",[29],82.5%
same,"viability, T/C",[30],50.6%
same,"viability, T/C",[31],80.8%
same,"viability, T/C",[32],62.9%
same,"viability, T/C",[33],92.6%
same,"viability, T/C",[34],81.7%
same,"viability, T/C",[35],84.8%
same,"viability, T/C",[36],60.7%
O=C(NO)c1cnc(N2CCN(S(=O)(=O)c3ccc4ccccc4c3)CC2)nc1 + Cc1[nH]c2ccc(F)cc2c1-c1nc2c3cccnc3c3ncccc3c2[nH]1,IC50,second compound 0.0316 µM,2.1 µM
same,IC50,second compound 0.1 µM,1.87 µM
same,IC50,second compound 0.316 µM,3.79 µM
same,IC50,second compound 1 µM,2.04 µM
same,IC50,second compound 3.16 µM,1.35 µM
same,IC50,second compound 10 µM,1.09 µM
same,"viability, T/C",[1],90.8%
same,"viability, T/C",[2],86%
same,"viability, T/C",[3],75.8%
same,"viability, T/C",[4],60.1%
same,"viability, T/C",[5],44.6%
same,"viability, T/C",[6],31.5%
same,"viability, T/C",[7],84.4%
same,"viability, T/C",[8],79.8%
same,"viability, T/C",[9],75.9%
same,"viability, T/C",[10],64.4%
same,"viability, T/C",[11],37.9%
same,"viability, T/C",[12],31.4%
same,"viability, T/C",[13],85.4%
same,"viability, T/C",[14],76.4%
same,"viability, T/C",[15],76%
same,"viability, T/C",[16],65%
same,"viability, T/C",[17],55.9%
same,"viability, T/C",[18],30.8%
same,"viability, T/C",[19],86.2%
same,"viability, T/C",[20],85.2%
same,"viability, T/C",[21],77.1%
same,"viability, T/C",[22],64.8%
same,"viability, T/C",[23],41%
same,"viability, T/C",[24],25.7%
same,"viability, T/C",[25],70.3%
same,"viability, T/C",[26],73.7%
same,"viability, T/C",[27],62.1%
same,"viability, T/C",[28],58.1%
same,"viability, T/C",[29],31.6%
same,"viability, T/C",[30],25.8%
same,"viability, T/C",[31],68.2%
same,"viability, T/C",[32],67.4%
same,"viability, T/C",[33],58.4%
same,"viability, T/C",[34],53.1%
same,"viability, T/C",[35],24.2%
same,"viability, T/C",[36],22.4%
CC1COCCN1c1cc(-c2ccnn2C)c2ccnc(-c3ccn[nH]3)c2n1 (stereo not given) + Cc1cnc(CNC(=O)c2c(=O)c3ccc(N4CCCN(C)CC4)nc3n3c2sc2ccccc23)cn1,IC50,second compound 0.0316 µM,0.176 µM
same,IC50,second compound 0.1 µM,0.123 µM
same,IC50,second compound 0.316 µM,0.0809 µM
same,IC50,second compound 1 µM,0.0715 µM
same,IC50,second compound 3.16 µM,0.0468 µM
same,IC50,second compound 10 µM,0.0373 µM
same,"viability, T/C",[1],85.7%
same,"viability, T/C",[2],62.4%
same,"viability, T/C",[3],37.3%
same,"viability, T/C",[4],31.8%
same,"viability, T/C",[5],33.6%
same,"viability, T/C",[6],30%
same,"viability, T/C",[7],91.6%
same,"viability, T/C",[8],53%
same,"viability, T/C",[9],36.4%
same,"viability, T/C",[10],27.6%
same,"viability, T/C",[11],40%
same,"viability, T/C",[12],28.1%
same,"viability, T/C",[13],74.4%
same,"viability, T/C",[14],43.8%
same,"viability, T/C",[15],33.9%
same,"viability, T/C",[16],34.1%
same,"viability, T/C",[17],32.9%
same,"viability, T/C",[18],24.4%
same,"viability, T/C",[19],66.3%
same,"viability, T/C",[20],43.4%
same,"viability, T/C",[21],33.2%
same,"viability, T/C",[22],30%
same,"viability, T/C",[23],32%
same,"viability, T/C",[24],26.1%
same,"viability, T/C",[25],57.6%
same,"viability, T/C",[26],33.4%
same,"viability, T/C",[27],31.4%
same,"viability, T/C",[28],31.6%
same,"viability, T/C",[29],27.4%
same,"viability, T/C",[30],19.9%
same,"viability, T/C",[31],52.9%
same,"viability, T/C",[32],35%
same,"viability, T/C",[33],32.5%
same,"viability, T/C",[34],25.9%
same,"viability, T/C",[35],27.3%
same,"viability, T/C",[36],20.3%
COc1ccc([C@@H](O)c2cc(-c3ncnc4cc(N5CCOCC5)ccc34)c(F)cc2Cl)nn1 + Cc1cnc(CNC(=O)c2c(=O)c3ccc(N4CCCN(C)CC4)nc3n3c2sc2ccccc23)cn1,IC50,second compound 0.0316 µM,> 10 µM
same,IC50,second compound 0.1 µM,> 10 µM
same,IC50,second compound 0.316 µM,> 10 µM
same,IC50,second compound 1 µM,6.35 µM
same,IC50,second compound 3.16 µM,4.19 µM
same,IC50,second compound 10 µM,9.8 µM
same,"viability, T/C",[1],99.2%
same,"viability, T/C",[2],95.8%
same,"viability, T/C",[3],93.6%
same,"viability, T/C",[4],89.9%
same,"viability, T/C",[5],75.8%
same,"viability, T/C",[6],59.8%
same,"viability, T/C",[7],91.4%
same,"viability, T/C",[8],84%
same,"viability, T/C",[9],87.3%
same,"viability, T/C",[10],71.2%
same,"viability, T/C",[11],70.4%
same,"viability, T/C",[12],59%
same,"viability, T/C",[13],89.4%
same,"viability, T/C",[14],79.1%
same,"viability, T/C",[15],75.4%
same,"viability, T/C",[16],68.9%
same,"viability, T/C",[17],66.6%
same,"viability, T/C",[18],50.3%
same,"viability, T/C",[19],80.1%
same,"viability, T/C",[20],66.6%
same,"viability, T/C",[21],74.4%
same,"viability, T/C",[22],64.8%
same,"viability, T/C",[23],63.1%
same,"viability, T/C",[24],42.7%
same,"viability, T/C",[25],72%
same,"viability, T/C",[26],62.7%
same,"viability, T/C",[27],61.8%
same,"viability, T/C",[28],59.3%
same,"viability, T/C",[29],53.5%
same,"viability, T/C",[30],43.2%
same,"viability, T/C",[31],56.9%
same,"viability, T/C",[32],65.4%
same,"viability, T/C",[33],66.3%
same,"viability, T/C",[34],52.3%
same,"viability, T/C",[35],62.1%
same,"viability, T/C",[36],41%
